From the NIST ThermoML archive (doi:10.1016/j.jct.2016.10.031)
± gives the expanded uncertainty stated by the source.

Experiment: molar heat capacity at constant pressure
Conditions: 101.33 kPa, Small (less than 1 g) adiabatic calorimetry

CC(C)(C)c1ccc(Oc2ccc([N+](=O)[O-])cc2)cc1 [1-(tert-butyl)-4-(4-nitrophenoxy)benzene]
Conditions | molar heat capacity at constant pressure [J/K/mol]
147.54 K, Crystal | 187.32 ± 1
148.06 K, Glass | 190.82 ± 1
148.34 K, Crystal | 188.16 ± 1
148.86 K, Glass | 191.65 ± 1
149.14 K, Crystal | 188.9 ± 1
149.66 K, Glass | 192.65 ± 1
149.94 K, Crystal | 189.82 ± 1
150 K, Crystal | 189.82 ± 0.91
150.46 K, Glass | 193.56 ± 1
150.74 K, Crystal | 190.57 ± 1
151.26 K, Glass | 194.31 ± 1.1
151.54 K, Crystal | 191.48 ± 1
152.06 K, Glass | 195.14 ± 1.1
152.35 K, Crystal | 192.31 ± 1
152.86 K, Glass | 195.97 ± 1.1
153.15 K, Crystal | 193.23 ± 1
153.66 K, Glass | 196.89 ± 1.1
153.95 K, Crystal | 194.14 ± 1.1
154.46 K, Glass | 197.88 ± 1.1
154.75 K, Crystal | 194.81 ± 1.1
155.26 K, Glass | 198.63 ± 1.1
155.55 K, Crystal | 195.89 ± 1.1
156.06 K, Glass | 199.63 ± 1.1
156.35 K, Crystal | 196.72 ± 1.1
156.86 K, Glass | 200.38 ± 1.1
157.15 K, Crystal | 197.47 ± 1.1
157.66 K, Glass | 201.21 ± 1.1
157.95 K, Crystal | 198.13 ± 1.1
158.46 K, Glass | 201.96 ± 1.1
158.75 K, Crystal | 199.21 ± 1.1
159.26 K, Glass | 202.87 ± 1.1
159.55 K, Crystal | 200.21 ± 1.1
160 K, Crystal | 200.63 ± 1.1
160.06 K, Glass | 203.79 ± 1.1
160.35 K, Crystal | 201.13 ± 1.1
160.85 K, Glass | 204.7 ± 1.1
161.15 K, Crystal | 202.12 ± 1.1
161.95 K, Crystal | 202.71 ± 1.1
162.45 K, Glass | 206.7 ± 1.1
162.75 K, Crystal | 203.62 ± 1.1
163.25 K, Glass | 207.28 ± 1.1
163.55 K, Crystal | 204.37 ± 1.1
164.04 K, Glass | 208.36 ± 1.1
164.35 K, Crystal | 205.62 ± 1.1
164.84 K, Glass | 209.11 ± 1.1
165.15 K, Crystal | 206.53 ± 1.1
165.64 K, Glass | 209.94 ± 1.1
165.95 K, Crystal | 207.36 ± 1.1
166.44 K, Glass | 210.52 ± 1.1
166.75 K, Crystal | 208.11 ± 1.1
167.23 K, Glass | 211.35 ± 1.2
167.55 K, Crystal | 209.11 ± 1.1
168.03 K, Glass | 212.35 ± 1.2
168.34 K, Crystal | 210.11 ± 1.1
168.81 K, Glass | 213.35 ± 1.2
169.14 K, Crystal | 210.44 ± 1.1
169.61 K, Glass | 214.18 ± 1.2
169.94 K, Crystal | 211.44 ± 1.2
170 K, Crystal | 211.44 ± 1.1
170.41 K, Glass | 214.93 ± 1.2
170.73 K, Crystal | 212.93 ± 1.2
171.2 K, Glass | 216.18 ± 1.2
171.53 K, Crystal | 213.1 ± 1.2
172 K, Glass | 217.01 ± 1.2
172.33 K, Crystal | 214.01 ± 1.2
172.79 K, Glass | 217.67 ± 1.2
173.12 K, Crystal | 214.76 ± 1.2
173.59 K, Glass | 218.42 ± 1.2
173.92 K, Crystal | 215.68 ± 1.2
174.38 K, Glass | 219.58 ± 1.2
174.72 K, Crystal | 216.59 ± 1.2
175.18 K, Glass | 220.25 ± 1.2
175.51 K, Crystal | 218.01 ± 1.2
175.97 K, Glass | 221.25 ± 1.2
176.31 K, Crystal | 218.34 ± 1.2
176.77 K, Glass | 221.83 ± 1.2
177.11 K, Crystal | 219.25 ± 1.2
177.56 K, Glass | 222.49 ± 1.2
177.91 K, Crystal | 219.83 ± 1.2
178.36 K, Glass | 223.49 ± 1.2
178.7 K, Crystal | 220.33 ± 1.2
179.15 K, Glass | 224.32 ± 1.2
179.5 K, Crystal | 221.5 ± 1.2
179.94 K, Glass | 224.99 ± 1.2
180 K, Crystal | 222.33 ± 1.2
180.3 K, Crystal | 222.33 ± 1.2
180.74 K, Glass | 225.74 ± 1.2
181.08 K, Crystal | 223.58 ± 1.2
181.52 K, Glass | 226.98 ± 1.2
181.88 K, Crystal | 224.41 ± 1.2
182.67 K, Crystal | 224.99 ± 1.2
183.09 K, Glass | 227.73 ± 1.2
183.47 K, Crystal | 225.82 ± 1.2
183.89 K, Glass | 229.73 ± 1.2
184.26 K, Crystal | 226.74 ± 1.2
184.68 K, Glass | 230.39 ± 1.2
185.06 K, Crystal | 227.57 ± 1.2
185.47 K, Glass | 231.56 ± 1.2
185.85 K, Crystal | 228.48 ± 1.2
186.26 K, Glass | 232.14 ± 1.2
186.65 K, Crystal | 229.15 ± 1.2
187.05 K, Glass | 232.97 ± 1.2
187.44 K, Crystal | 230.48 ± 1.2
187.84 K, Glass | 233.97 ± 1.2
188.22 K, Crystal | 231.31 ± 1.2
188.63 K, Glass | 234.63 ± 1.2
189.02 K, Crystal | 232.14 ± 1.2
189.42 K, Glass | 235.47 ± 1.2
189.81 K, Crystal | 233.3 ± 1.2
190 K, Crystal | 233.22 ± 1.2
190.21 K, Glass | 236.46 ± 1.2
190.6 K, Crystal | 233.97 ± 1.2
190.99 K, Glass | 237.29 ± 1.2
191.39 K, Crystal | 234.63 ± 1.2
191.78 K, Glass | 237.88 ± 1.2
192.19 K, Crystal | 235.38 ± 1.2
192.57 K, Glass | 238.87 ± 1.2
192.98 K, Crystal | 236.3 ± 1.2
193.36 K, Glass | 239.79 ± 1.2
193.75 K, Crystal | 236.96 ± 1.2
194.13 K, Glass | 240.95 ± 1.2
194.54 K, Crystal | 237.79 ± 1.2
194.91 K, Glass | 241.45 ± 1.2
195.33 K, Crystal | 238.54 ± 1.2
195.7 K, Glass | 241.95 ± 1.2
196.12 K, Crystal | 239.46 ± 1.2
196.49 K, Glass | 243.2 ± 1.2
196.91 K, Crystal | 240.62 ± 1.2
197.27 K, Glass | 243.95 ± 1.2
197.7 K, Crystal | 241.29 ± 1.2
198.06 K, Glass | 245.11 ± 1.3
198.49 K, Crystal | 242.12 ± 1.2
198.84 K, Glass | 245.94 ± 1.3
199.28 K, Crystal | 243.03 ± 1.2
199.63 K, Glass | 246.69 ± 1.3
200 K, Crystal | 244.28 ± 1.3
200.07 K, Crystal | 244.03 ± 1.2
200.62 K, Glass | 248.02 ± 1.3
201.06 K, Crystal | 245.28 ± 1.3
202.26 K, Crystal | 246.86 ± 1.3
203 K, Glass | 251.26 ± 1.3
203.46 K, Crystal | 247.94 ± 1.3
204.2 K, Glass | 252.18 ± 1.3
204.66 K, Crystal | 249.18 ± 1.3
205.4 K, Glass | 253.42 ± 1.3
205.86 K, Crystal | 250.85 ± 1.3
206.6 K, Glass | 254.76 ± 1.3
207.05 K, Crystal | 252.26 ± 1.3
207.79 K, Glass | 256.09 ± 1.3
208.26 K, Crystal | 253.26 ± 1.3
208.99 K, Glass | 257.5 ± 1.3
209.45 K, Crystal | 254.42 ± 1.3
210 K, Crystal | 255.34 ± 1.3
